Laboratory results published in US7981898B2, “Methods of enhancing mucosal hydration and mucosal clearance by treatment with sodium channel blockers and osmolytes” (Parion Sciences, Inc., priority 2006, dated 2011).

Test system: Primary canine bronchial epithelia (CBE)
Experiment: Gravimetric measurement of surface liquid volume on primary bronchial epithelial cultures at air-liquid interface (Assay #4)
Type: cell-based
Description: 4. Durability of Novel ENaC Blockers with or without Osmolytes on Airway Surface Liquid on an in vitro Cell Culture Model.
Using a gravimetric (weighing) procedure, the luminal surface liquid (mass/volume) on primary bronchial epithelial cultures grown at an air/liquid interface on permeable membrane supports (Corning) are measured, and changes in luminal surface liquid volume are recorded for up to 8 h. An applied starting volume of buffer (Krebs-Henseleit Bicarbonate Buffer Solution) with and without equimolar concentrations (0.1-100 μM) of selected novel or commercially available sodium channel blockers with or without osmolytes are added and at which point the experiment is started. The permeable supports are then reweighted at select time points and the mass/volume recorded. The data is then analyzed determining the changes in surface liquid mass/volume form beginning to the end of the 8 hour time frame.
To measure the effects of novel sodium channel blockers with or without osmotically active agents on surface liquid volume on airway surface liquid an in vitro cell culture model was used as described above, Assay #4. The effects of an ionic osmolyte, 1.5% NaCl (hypertonic saline), with or without 10 μM of compound 1 before and after adding 1.5% NaCl and compared it to isotonic buffer (vehicle) (FIG. 1) on surface liquid volume was measured over 8 hours. Using the same method (Assay #4) the effects of a non-ionic osmolyte mannitol at 4.2 and 8.4 mg/mL were compared to compound 1 and isotonic buffer (vehicle) (FIG. 2), and also by combining mannitol (4.2 and 8.4 mg/mL) with compound 1 at 1 and 10 μM (FIG. 3) on surface liquid volume was measured. The effects of compound 2 with an ionic osmolyte, 1.5% NaCl (hypertonic saline), was compared to compound 1 and hypertonic saline (1.5% NaCl), compound 1 in isotonic buffer, compound 2 in isotonic buffer, 1.5% NaCl, and isotonic buffer (vehicle) (FIG. 4) on changes in surface liquid over 8 hours. […]

## N=C(NCCCCc1ccc(OCC(O)CO)cc1)NC(=O)c1nc(Cl)c(N)nc1N (stereo not drawn) [Compound 1]
Compound 1 (10 μM) with pre or post administration of 1.5% NaCl solution, maintained for 8 hours, n=12
  volume expansion: 132+13%
Compound 1 alone at 10 μM, for over 8 hours
  inhibition of volume depletion (surface liquid volume): 74.7 ± 8.7%
Hypertonic saline (1.5% NaCl) combined with Compound 1 (10 μM)
  duration of the increase in ASL volume: over 8 h
